ChEMBL document CHEMBL3988442, “University of Dundee, Small-Polar-MMV Screening Library” (2021)
pIC50: −log10 of the molar value.

Biological target: ClpP1P2 (Mycobacterium tuberculosis (strain ATCC 25618 / H37Rv), UniProt P9WPC3+P9WPC5)
Assay: in vitro assay to detect presence of AMC directly proportional to the activity of ClpP1P2. GHDDI collaboration.
Type: functional

Chain of ClpP1P2 (P9WPC5 whole entry): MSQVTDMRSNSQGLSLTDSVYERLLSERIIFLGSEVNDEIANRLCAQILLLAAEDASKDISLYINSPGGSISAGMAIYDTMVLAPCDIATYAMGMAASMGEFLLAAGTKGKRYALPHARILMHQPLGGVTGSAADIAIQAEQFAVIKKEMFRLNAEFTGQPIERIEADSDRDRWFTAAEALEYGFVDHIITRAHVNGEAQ
Chain of ClpP1P2 (P9WPC3 whole entry): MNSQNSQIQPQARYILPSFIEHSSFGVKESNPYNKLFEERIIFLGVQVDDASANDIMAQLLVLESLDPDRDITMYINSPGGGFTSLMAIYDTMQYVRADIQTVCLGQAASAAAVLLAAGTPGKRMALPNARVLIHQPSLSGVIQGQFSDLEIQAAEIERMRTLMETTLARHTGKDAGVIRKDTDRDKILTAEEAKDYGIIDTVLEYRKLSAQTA

SMILES | pIC50
Cc1c(-c2cccs2)nn2c(O)c3c(nc12)CN(C(=O)C1CC1)C3 | < 4.00
COCc1cccc(CNCc2c(C)nn(C)c2N2CCOCC2)c1 | < 4.00
Cc1nc(CN2CCCN(C(=O)c3sccc3C#N)CC2)cs1 | < 4.00
CCCNC(=O)c1ccc(-c2ccco2)[nH]c1=O | < 4.00
CCn1c(C)nnc1CN(C)C1CCN(CCS(=O)(=O)CC)C1 (stereo unspecified) | < 4.00
Nc1cccc(-c2cccc3ccnn23)n1 | < 4.00
COCCOc1ccc(CNc2cnc3ccccc3n2)cn1 | < 4.00
O=C(c1cncc(NCC2COc3ccccc3C2)n1)N1CCOCC1 (stereo unspecified) | < 4.00
Cc1cc(NC(=O)CN2CCn3c(nnc3C(C)C)C2)no1 | < 4.00
CCn1nc2c(cc1=O)CN(Cc1nc(C)c(C)o1)CC2 | < 4.00
CN(C)CC1CN(c2cnc3ccccc3n2)CCO1 (stereo unspecified) | < 4.00
CNC(=O)c1cc2c(nc1NCC(C)C)CCN(CCOC)CC2 | < 4.00
Cc1nc(C)n(CC2CCCN(CC(=O)N3CCCC3)C2)n1 (stereo unspecified) | < 4.00
CC(C)c1nnc(CNC2CCCN(Cc3noc(C4CC4)n3)C2)o1 (stereo unspecified) | < 4.00
CN(C)Cc1cc(C2CCCCN2S(=O)(=O)Cc2ccccc2)nn1C (stereo unspecified) | < 4.00
N#Cc1cccnc1N1CCCN(C(=O)CCn2cccn2)CC1 | < 4.00
CCSc1ncc(-c2cc(C3CC3)nc(N)c2C#N)cn1 | < 4.00
Cc1nccn1CCCNc1nccnc1C#N | < 4.00
N#Cc1ccnc(NCc2cc3n(n2)CCCN(C(=O)C2CCC2)C3)c1 | < 4.00
CCOCc1ccc(CNc2cncc(-n3cccn3)n2)cc1 | < 4.00
O=C(c1c2c(N3CCCC3)ncnc2n2ccccc12)N1CCOCC1 | < 4.00
CNC(=O)C1CCCN1c1nc(C)c2ccccc2n1 (stereo unspecified) | < 4.00
O[C@@H]1C[C@H]2CN(Cc3ccccc3)[C@H](Cc3ccccc3)CN2C1 | < 4.00

SMILES | pIC50
Cc1cc(C)c2cc(CNCC3CCCO3)c3nn(C)c(=O)n3c2c1 (stereo unspecified) | < 4.00
CC(C)n1c2ccccc2c2c1cc(C(=O)NC1CC1)n2C(=O)N(C)C | < 4.00
NC(=O)C1CCN(c2nc3nccc(-c4cccnc4)c3c(=O)[nH]2)CC1 | < 4.00
CNC(=O)c1cc2c(nc1NCC1CC1)CCN(CC1CC1)CC2 | < 4.00
CN(C)CCC1CN(C(=O)c2cccc3c2OCC3)CCO1 (stereo unspecified) | < 4.00
COc1cccc(OCCNS(=O)(=O)Cc2ccccc2)c1 | < 4.00
Cc1cc2nc(-c3ccccc3)cc(NCC3CCS(=O)(=O)C3)n2n1 (stereo unspecified) | < 4.00
CC/N=c1\nc(NCC)nc2n1C(O)(Nc1cc(Cl)ccc1Cl)CS2 (stereo unspecified) | < 4.00
Cc1nc(CN2CCN(C(=O)c3sccc3C)CC2)cs1 | < 4.00
CC(COCC(F)(F)F)NC(=O)c1ccc(-c2ccco2)[nH]c1=O (stereo unspecified) | < 4.00
Cn1cc(Cl)cc1C(=O)N1CCCN(Cc2ccccc2)CC1 | < 4.00
Cn1ncc2c1CCCN(C(=O)C1CCCC1)C2 | < 4.00
COc1cc2nc(NCCNS(C)(=O)=O)cc(C)c2cc1OC | < 4.00
COc1ncccc1CNC(=O)c1cc(C)on1 | < 4.00
COc1ccccc1Cc1cncc(N2CC(C(=O)O)C2)n1 | < 4.00
O=C(c1c2c(NCC3CC3)ncnc2n2ccccc12)N1CCCC1 | < 4.00
CC(C)Nc1nc2c(c(NC3CC3)n1)CN(C(=O)c1ccsc1)CC2 | < 4.00
COC(=O)[C@@H]1C[C@H](NC(=O)c2cc(=O)[nH]c3ccc(C)cc23)CN1C | < 4.00
CN(C)c1cncc(-c2ccnc3c2ccn3C)n1 | < 4.00
Cc1csc2ncc(-c3ccnc(N4CCCC[C@@H]4CO)n3)c(=O)n12 | < 4.00
Cc1nc(C)n(CC2CN(Cc3cccc4ccccc34)CCO2)n1 (stereo unspecified) | < 4.00
Cc1oc(C)c(C(=O)N2CCN(Cc3cscn3)CC2)c1C | < 4.00
CC(Cn1cccn1)NC(=O)Cc1csc(C(C)C)n1 (stereo unspecified) | < 4.00

SMILES | pIC50
COc1cc2c(cc1CCC(=O)O)CCC2 | < 4.00
O=S1(=O)CCC(CNc2cc(-c3ccccc3)nc3ccnn23)C1 (stereo unspecified) | < 4.00
CCc1ncc2c(n1)CN(CC(=O)Nc1cccnc1)CC2 | < 4.00
COCc1nc(C(=O)N2CCCC(n3nc(C)cc3C)C2)cs1 (stereo unspecified) | < 4.00
Cc1ccoc1C(=O)NC1CCN(C(=O)Nc2ccccn2)CC1 | < 4.00
COCCN1CCc2cc(C(=O)NC(C)C)c(NCC(C)C)nc2CC1 | < 4.00
c1ccc(Cc2nnc(CN3CCc4cncnc4C3)o2)cc1 | < 4.00
CCn1nc(NC(=O)Cn2ccc(C(C)=O)n2)c2ccccc21 | < 4.00
O=C1NC2(CCN(C(=O)CN3CCOCC3)CC2)Nc2ccc(Cl)cc21 | < 4.00
O=C(c1cncc(N2CCC(O)(CO)CC2)n1)N1CCCC1 | < 4.00
Cc1ccccc1-c1noc(CN2CCc3cncnc3C2)n1 | < 4.00
CS(=O)(=O)NC1CCCN(C(=O)c2cccnc2)C1 (stereo unspecified) | < 4.00
O=C(O)C1CN(c2cncc(Cc3ccccc3F)n2)C1 | < 4.00
CC(C)Nc1ccnc(-c2ccnc3c2ccn3C)n1 | < 4.00
Cn1cc(-c2ncc3c(c2C(=O)O)CCN(Cc2ccccn2)C3)cn1 | < 4.00
NC(=O)CC1CCCN(c2cncc(OCc3ccccc3)n2)C1 (stereo unspecified) | < 4.00
CC(=O)N1CCC(c2cncc(N3CCOCC3)n2)CC1 | < 4.00
c1ncc2c(n1)CN(Cc1nc(-c3ccoc3)no1)CC2 | < 4.00
Cc1ccc(CNC(=O)NC(C)Cn2cccn2)cn1 (stereo unspecified) | < 4.00
COc1ccc2c(c1)C(=O)N(C)C1(CCN(CC3CC3)CC1)N2 | < 4.00
Cc1ccc(C2(O)CCN(C(=O)CCn3ccc(=O)[nH]c3=O)CC2)nc1 | < 4.00
Cc1nc(C)n(CC2CCCN2CCC(=O)N2CCCCC2)n1 (stereo unspecified) | < 4.00
CC(c1ccncn1)N(C)Cc1cc2cc3c(cc2[nH]c1=O)OCO3 (stereo unspecified) | < 4.00

SMILES | pIC50
COc1cc2c(cc1-c1nc3c(cnn3C(C)C)[nH]1)OCO2 | < 4.00
Cc1ccc2cc(CN(C)Cc3ccccn3)c(=O)[nH]c2c1 | < 4.00
CCc1n[nH]c(C2CN(CCCS(C)(=O)=O)CCO2)n1 (stereo unspecified) | < 4.00
Cc1cccc2nc(CN3CCCC3Cn3cccn3)cn12 (stereo unspecified) | < 4.00
Cc1nc(-c2ccsc2)ccc1C(=O)NCC(C)N1CCOCC1 (stereo unspecified) | < 4.00
Cc1cc(C)n(-c2ccc3nnc(C)n3n2)n1 | < 4.00
COc1c(C2CCCN2Cc2noc(C)n2)c(C)nn1C (stereo unspecified) | < 4.00
CCN(CC)C(=O)CCNc1cncc(-n2nc(C)cc2C)n1 | < 4.00
N#Cc1cccnc1N1CCC(C2CCCCCN2C(=O)C2CC2)CC1 (stereo unspecified) | < 4.00
CCN(CC)S(=O)(=O)c1cc2c3c(c1)c(C)cc(=O)n3CC2 | < 4.00
Cc1cccc(CNc2cncc(-n3cccn3)n2)c1 | < 4.00
Cc1cc(C)n(CC2CCCN2CCCS(N)(=O)=O)n1 (stereo unspecified) | < 4.00
Cc1cnn(CC2CN(Cc3nc4ccccc4c(=O)[nH]3)CCO2)c1 (stereo unspecified) | < 4.00
CC(C)c1ncc2c(n1)CN(Cc1nnc(Cc3ccccc3)o1)CC2 | < 4.00
Cc1c[nH]nc1C1CCCN1Cc1ncc[nH]1 (stereo unspecified) | < 4.00
CCn1cc(-c2cc(-c3cc(CC(=O)O)cs3)nc(N)c2C#N)c(C)n1 | < 4.00
CC(C)n1cnc(-c2nc(C(=O)NC3CC3)c3ccccn23)c1 | < 4.00
O=C(CO)N1CCC(CCc2ccnc(Nc3cnccn3)c2)CC1 | < 4.00
COCCNC(=O)c1nc(-c2cn(C)cn2)n2ccccc12 | < 4.00
CC(C)n1ccc(-c2cc(C(=O)N3CCN(C)CC3)c3ccccn23)n1 | < 4.00
Cc1ccc(NC2CCN(C(=O)c3ccoc3C)CC2)nn1 | < 4.00
CCCn1cc(-c2cc(-c3cc(CC)n[nH]3)c(C#N)c(N)n2)c(C)n1 | < 4.00
